According to US5112818A, “2-(2-cyclopropylpyrrolidin-4-ylthio)carbapenhem derivatives” (Banyu Pharmaceutical Co., Ltd., priority 1989, dated 1992):
Values after ≈ are worked out from the molar mass of the structure shown. Read-outs that look alike come from different tables or passages of the source.

Legend:
renal dehydropeptidase I = settings: cited from earlier work
Meth-R. S. aureus = experiment: relative antibacterial potency, disc diffusion test (Bauer et al.); format: cell-based; settings: ratio to thienamycin (=1.0); larger value = higher activity
Protocol: The compounds of the present invention show strong antibacterial activities against various gram positive bacteria and gram negative bacteria. As representative examples, the antibacterial activities of the compounds of the present invention described in the Examples, were measured by a disc diffusion test by the method of Bauer et al. (Amer. J. Clin. Pathol., vol. 45, p. 493 (1966)). Thienamycin or imipenem was used as the internal standard.
MIC of each test compound was calculated from the diameter of the inhibition ring formed by the disc containing the test compound by using the calculation formula reported by Humphrey and Lightbown (J. Gen. Microbiol., vol. 7, p. 129 (1952)). For each microorganism, a geometrical average of MIC was obtained, and the activity ratio to thienamycin was calculated.
The antibacterial activities are represented by the ratio to thienamycin (=1.0), whereby the larger the numerical value, the higher the activities.

[1] = tested on: methicillin resistant Staphylococcus aureus; settings: in words; background art; cited from earlier work
DHP-I [2] = tested on: DHP-I
Excerpt: (§2) The DHP-I susceptibility was quantitatively analyzed by the method by Kropp et al., Antimicrob.,- Agents Chemother., vol. 22, p. 62-70 (1982), whereby the smaller the numerical value representing the ratio to imipenem (=1.0), the higher the stability.

S. aureus MB4970 = experiment: in vitro antibacterial activity, agar plate dilution method (MIC); format: cell-based; settings: Staphylococcus aureus, 10^6 CFU/ml, 37° C., 16 hours
Protocol: (§1) One platinum loopful of each test microorganism incubated overnight in Mueller Hinton broth, was inoculated to Mueller Hinton agara (inoculum size: 10^6 CFU/ml). Such culture media contained antibacterial agents in various concentrations. After incubation at 37° C. for 16 hours, the minimum inhibitory concentrations (MIC: μg/ml) were measured.

S. aureus JS1 = experiment: as above; format: cell-based; settings: Staphylococcus aureus; 10^6 CFU/ml; 37° C., 16 hours; S. aureus JS1, lactamase producing microorganism
Protocol: as §1

S. aureus 209P NIHJ JC1 = experiment: as above; format: cell-based; settings: Staphylococcus aureus, 10^6 CFU/ml, 37° C., 16 hours
Protocol: as §1

[3] = in words; background art; cited from earlier work
[4] = in words; cited from earlier work
[5] = tested on: gram positive bacteria and gram negative bacteria; settings: in words, cited from earlier work
DHP-I [6] = experiment: DHP-I susceptibility (method by Kropp et al.); settings: ratio to imipenem (=1.0); smaller value = higher stability
Excerpt: as §2

kidney = settings: in words; due to the decomposition products; cited from earlier work
β-lactamase = settings: in words; cited from earlier work
[7] = tested on: imipenem resistant Pseudomonas aeruginosa; settings: in words; clinical field; cited from earlier work
[8] = tested on: highly methicillin resistant Staphylococcus aureus; settings: in words; clinical field; cited from earlier work

For `C[C@@H](O)[C@H]1C(=O)N2C(C(=O)O)=C(S[C@@H]3CN[C@H](C(=O)N(C)C)C3)[C@H](C)[C@H]12` [meropenem], the “decomposition by / stability against DHP-I” value (from here on “decomposition by / stability”) (renal dehydropeptidase I) is given as “stability against DHP-I substantially improved”, the “Relative antibacterial potency, Meth-R. S. aureus” value (“Relative antibacterial potency” for short) (Meth-R. S. aureus) is given as 3.15 and the “antibacterial activities against highly methicillin resistant Staphylococcus aureus” value [1] is given as “not adequate”. For the same compound, the DHP-I susceptibility (DHP-I [2]) was 0.12.

For `C[C@@H](O)[C@H]1C(=O)N2C(C(=O)O)=C(S[C@@H]3CN[C@H](C4CC4C(N)=O)C3)[C@H](C)[C@H]12` (single isomer, unassigned) [Example 6], the “Relative antibacterial potency” value (Meth-R. S. aureus) was 5.41, the MIC (S. aureus MB4970) was 0.05 µg/mL (≈ 0.126 µM) and the MIC (S. aureus JS1) was 0.78 µg/mL (≈ 1.97 µM). It also gave an MIC (S. aureus 209P NIHJ JC1) of 0.025 µg/mL (≈ 0.0632 µM).

For `C[C@@H](O)[C@H]1C(=O)N2C(C(=O)O)=C(SCCN)C[C@H]12` [thienamycin], the chemical stability [3] is given as “chemically unstable”, the “decomposition by / stability” value (renal dehydropeptidase I; in words, background art) is given as “likely to be decomposed by a certain enzyme in vivo such as renal dehydropeptidase I” and the “recovery rate in the urine” value [4] is given as “low”. For the same compound, the antibacterial activities ([5]; gram positive and gram negative bacteria) was “strong antibacterial activities over a wide range against gram positive bacteria and gram negative bacteria”.

In the case of `C[C@@H](O)[C@H]1C(=O)N2C(C(=O)O)=C(SCCN=CN)C[C@H]12` [imipenem], the chemical stability [3] is listed as “remarkably improved over thienamycin”, the DHP-I susceptibility (DHP-I [6]) is listed as 1.0 and the “toxicity against the kidney” value (kidney) is listed as “presents toxicity against the kidney due to the decomposition products”. For the same compound, the β-lactamase resistance (β-lactamase) was “has β-lactamase resistance”, the “treating effects against imipenem resistant Pseudomonas aeruginosa” value [7] was “does not show adequate treating effects” and the “treating effects against imipenem-resistant highly methicillin resistant Staphylococcus aureus” value [8] was “does not show adequate treating effects”. The “decomposition by / stability” value (renal dehydropeptidase I; in words, background art) was “likely to be decomposed by DHP-I in the human kidney”, the “Relative antibacterial potency” value (Meth-R. S. aureus) was 2.57 and the “antibacterial activities relative to thienamycin” value ([5]; various types of bacteria) was “equal or higher level than thienamycin”.
